Consider 5 compounds from US5981517A, “Androstene derivatives” (priority 1997, dated 1999).

One series in a line: in vitro. Conditions: rat, lung cytosol. Format: in vitro ADME. The procedure: To determine that the compounds of the invention can be stable during the incubation period, the test compounds A, B, C, and D were investigated for their stabilities at the incubation conditions, which are room temperature and 2 hours, for receptor binding studies. The frozen cytosol which was made for the receptor binding study was thawed in a water bath and diluted with 1 part of incubation buffer (10 mM Tris/HCl, 10 mM sodium molybdate, and 2 mM 1,4-dithiothreitol) containing a 15 mM concentration of enzyme inhibitor, diisopropyl fluorophosphate. Portions (560 μL) of the diluted cytosol were added to centrifuge tubes containing 80 μL portions of blank incubation buffer instead of volume of tracer ([^3 H]triamcinolone acetonide) which would be used in the receptor binding study (RBS), 80 μL of solution of a Δ^1 -cortienic acid (0.1 mM) in buffer (the final concentration of Δ^1 -cortienic acid in the incubation medium was […]), and 80 μL of 100,000 nM of concentrations of test compounds in ethanol to give a final concentration of 10,000 nM. This mixture was kept at room temperature for 2 hours. Samples of 0.1 mL were taken at appropriate time intervals (0, 0.5, 1, 1.5, 2 hours) and were mixed with 0.2 mL of acetonitrile containing 5% DMSO. Each mixture was centrifuged and the supernatant were injected in the HPLC.
Male Sprague-Dawley rats, each weighing 150 to 200 g, were used 6 days after adrenalectomy. Rats were sacrificed by decapitation. Immediately after resection of the lungs, the tissue was frozen in ice. The cytosol was prepared using a slight modification of a previously described method (Dahlberg, 1984); After addition of 6 volumes of ice-cold incubation buffer (10 mM Tris/HCl, 10 mM sodium molybdate, and 2 mM 1,4-dithiothreitol), the tissue was homogenized with the Virtis 45 homogenizer at full speed, for 4 periods of 10 seconds with a 10-second cooling period between each step. The homogenate was centrifuged at 35,000 g for 1 hour at 4° C. in a Beckman ultracentrifuge L8-70M equipped with a T170 rotor. Portions (5 ml) of the cytosol were frozen in liquid nitrogen and stored at -80° C.

Series [1] has as its target T1, rat lung glucocorticoid receptor (Rattus norvegicus, UniProt P06536).
T1 construct: Immediately after resection of the lungs, the tissue was frozen in ice; The cytosol was prepared; from tissue; host or cells: lung cytosol of adrenalectomized male Sprague-Dawley rats
T1 sequence (P06536 1-795): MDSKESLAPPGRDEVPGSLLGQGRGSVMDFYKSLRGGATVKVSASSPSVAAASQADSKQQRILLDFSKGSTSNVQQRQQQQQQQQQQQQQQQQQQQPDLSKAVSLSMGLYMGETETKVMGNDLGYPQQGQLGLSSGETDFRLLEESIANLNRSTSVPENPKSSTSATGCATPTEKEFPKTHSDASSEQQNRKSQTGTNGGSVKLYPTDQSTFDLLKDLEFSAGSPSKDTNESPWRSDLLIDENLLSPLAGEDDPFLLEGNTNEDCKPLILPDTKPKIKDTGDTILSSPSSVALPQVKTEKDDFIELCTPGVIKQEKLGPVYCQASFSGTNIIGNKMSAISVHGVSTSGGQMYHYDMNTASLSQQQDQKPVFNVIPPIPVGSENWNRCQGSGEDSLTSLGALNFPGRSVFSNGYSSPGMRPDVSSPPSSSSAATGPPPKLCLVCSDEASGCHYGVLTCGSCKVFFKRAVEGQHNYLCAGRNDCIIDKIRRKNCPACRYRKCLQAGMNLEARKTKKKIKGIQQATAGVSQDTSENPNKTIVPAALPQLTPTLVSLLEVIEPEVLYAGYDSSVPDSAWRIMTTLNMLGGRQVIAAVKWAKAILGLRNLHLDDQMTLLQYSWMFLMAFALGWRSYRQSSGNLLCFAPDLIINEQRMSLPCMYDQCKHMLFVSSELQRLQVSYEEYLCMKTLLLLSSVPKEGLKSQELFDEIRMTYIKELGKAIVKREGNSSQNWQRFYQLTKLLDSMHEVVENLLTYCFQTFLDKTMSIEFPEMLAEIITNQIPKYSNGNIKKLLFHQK
As to the kind of experiment: Receptor binding studies ([3H]triamcinolone acetonide displacement). Conditions: for RBA: further receptor binding studies (Table X), dexamethasone = 100, * mean ± SE of 3-5 results; for IC50: rat lung cytosol, 10 nM [3H]triamcinolone acetonide, 2 h, 24° C., read-out: IC50; for IC50 / Relative binding affinity (RBA): with Δ1-cortienic acid; for Relative binding affinity (RBA): with respect to dexamethasone (RBA = 100). The procedure:
Male Sprague-Dawley rats, each weighing 150 to 200 g, were used 6 days after adrenalectomy. Rats were sacrificed by decapitation. Immediately after resection of the lungs, the tissue was frozen in ice. […] Portions (5 ml) of the cytosol were frozen in liquid nitrogen and stored at -80° C.
The cytosol was thawed in a water bath and diluted with 1 part of incubation buffer containing a 15 mM concentration of diisopropyl fluorophosphate. […] After a 2 hour incubation period at room temperature (24° C.), the unbound steroid was removed by addition of a 2% suspension of activated charcoal in incubation buffer (400 μL). The mixture was incubated for 5 minutes at room temperature and then was centrifuged at about 10,000 g for 3 minutes in the microcentrifuge. The radioactivity (cpm) in the supernatant (400 μL) was determined by liquid scintillation counting.
The data is fitted to the following logistic function:
B=T-T * C^N /(C^N +IC50^N)+NS,
where B=CPM in the presence of competitor, T=CPM in the absence of competitor, C=competitor concentration, N=Hill slope factor, and NS=cpm under non-specific binding conditions.
For the representative compound of the invention B, receptor binding affinity was investigated with and without Δ^1 -cortienic acid in the incubation solution to study the effect of Δ^1 -cortienic acid on the receptor binding.
Further studies to evaluate the relative receptor binding affinities of compounds of the invention, other compounds of formula (VII) hereinabove and well-known anti-inflammatory steroids were undertaken, using the methods described in the RECEPTOR BINDING STUDIES set forth above. […] For comparison purposes, the following compounds having formula (VII) above were also tested: […]

Series [2] concerns forearms of a human volunteer. As to the kind of experiment: Further human vasoconstriction testing, Method 1. Note: key: 0: normal skin; 1: slight pallor of indistinct outline; 2: pallor with at least two corners outlined; 3: even pallor with a clear outline of the application sites; 4: very intense pallor. Format: in vivo. Put shortly: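 Each mixture, 50 μL in ethanol, was loaded onto circular 8 mm patches. Once the ethanol had evaporated, the patches were placed on a human volunteer's forearms under a water-impervious film for 3 hr. After the patches were removed, vasoconstriction was scored at intervals from 0 (normal skin) to 4 (very intense pallor). The same individual received all tests, run 2-4 times per compound.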

[3] abbreviates: 24 Hours, 1 hour re-occlusion at 20-21 hours, 0.01 mM.
Setting [4] is: 24 Hours, 1 hour re-occlusion at 20-21 hours, 0.05 mM.
[5] abbreviates: 24 Hours, 1 hour re-occlusion at 20-21 hours, 0.1 mM.
Setting [6] is: 24 Hours, 1 hour re-occlusion at 20-21 hours, 0.5 mM.

As usually defined, the fraction remaining is the share of the starting amount still present when the sample was taken. Low readings indicate a greater loss, high ones greater stability. What is called IC50 is the concentration that gives 50% inhibition. As for `C[C@]12C=CC(=O)C=C1CC[C@@H]1[C@@H]2[C@@H](O)C[C@@]2(C)[C@H]1CC[C@]2(OC(=O)C(Cl)Cl)C(=O)OCCl` [Compound D, Chloromethyl 17α-dichloroacetoxy-11β-hydroxyandrosta-1,4-dien-3-one-17β-carboxylate], in “in vitro”, the share remaining at 2 h was 70% and the share remaining at 2 h, 10 µM was 70.6%. In series [1], the RBA is recorded as 684, the IC50 worked out at 11.9 nM and the “Relative binding affinity (RBA)” value is given as 684. The Vasoconstriction activity in series [2] (3 Hours, 10 mM) amounted to 4. Also, the Vasoconstriction activity in series [2] (20 Hours, 10 mM) was 1.
On to `COC(=O)[C@@]1(OC(=O)C(Cl)Cl)[C@H](C)C[C@H]2[C@@H]3CCC4=CC(=O)C=C[C@]4(C)[C@@]3(F)[C@@H](O)C[C@@]21C` [Compound I, methyl 17α-dichloroacetoxy-9α-fluoro-11β-hydroxy-16α-methylandrosta-1,4-dien-3-one-17β-carboxylate], for which the share remaining at 2 h in the series “in vitro” was greater than 90%. Besides, in series [1], the RBA turned out to be 1745 ± 185. Further, the “Relative binding affinity (RBA)” value in series [1] was found to be 495. Also, the Vasoconstriction activity in series [2] (3 Hours, 0.01 mM) is listed as 1; in series [2] (3 Hours, 0.05 mM) it was 2; in series [2] (3 Hours, 0.1 mM) it was 2; in series [2] (3 Hours, 0.5 mM) it was 3; in series [2] (3 Hours, 1 mM), 4; in series [2] (3 Hours, 5 mM), 4. The Vasoconstriction activity in series [2] (3 Hours, 10 mM) was 4; in series [2] (20 Hours, 0.01 mM) it was 0; in series [2] (20 Hours, 0.05 mM), 1; in series [2] (20 Hours, 0.1 mM), 1; in series [2] (20 Hours, 0.5 mM), 1; in series [2] (20 Hours, 1 mM), 1. Besides, the Vasoconstriction activity in series [2] (20 Hours, 5 mM) is listed as 2; in series [2] (setting [3]) it was 1; in series [2] (setting [4]), 2; in series [2] (setting [5]) it was 3; in series [2] (setting [6]), 3.
Take `COC(=O)[C@@]1(OC(=O)C(Cl)Cl)CC[C@H]2[C@@H]3CCC4=CC(=O)C=C[C@]4(C)[C@H]3[C@@H](O)C[C@@]21C` [Compound A, Methyl 17α-dichloroacetoxy-11β-hydroxyandrosta-1,4-dien-3-one-17β-carboxylate]: in “in vitro”, the share remaining at 2 h turned out to be 75% and the share remaining at 2 h, 10 µM is 75.1%. Further, in series [1], the RBA is recorded as 165, the half-maximal inhibitory concentration (IC50) is 49.5 nM and the “Relative binding affinity (RBA)” value is recorded as 165. In series [2] (3 Hours, 10 mM), this compound displayed a Vasoconstriction activity of 4. In series [2] (20 Hours, 10 mM), this compound gave a Vasoconstriction activity of 2.
In series [1], `CCCCC(=O)O[C@]1(C(=O)CO)[C@@H](C)C[C@H]2[C@@H]3CCC4=CC(=O)C=C[C@]4(C)[C@@]3(F)[C@@H](O)C[C@@]21C` [Betamethasone 17-valerate, reference compound] displayed an RBA of 1742 ± 130. Besides, the Vasoconstriction activity in series [2] (3 Hours, 0.01 mM) is recorded as 0; in series [2] (3 Hours, 0.05 mM), 1; in series [2] (3 Hours, 0.1 mM), 1; in series [2] (3 Hours, 0.5 mM), 2; in series [2] (3 Hours, 1 mM) it was 3; in series [2] (3 Hours, 5 mM), 3. Besides, the Vasoconstriction activity is 4 in series [2] (3 Hours, 10 mM); 0 in series [2] (20 Hours, 0.01 mM); 1 in series [2] (20 Hours, 0.05 mM); 1 in series [2] (20 Hours, 0.1 mM); 1 in series [2] (20 Hours, 0.5 mM); 1 in series [2] (20 Hours, 1 mM). Further, the Vasoconstriction activity in series [2] (20 Hours, 5 mM) was determined as 1; in series [2] (20 Hours, 10 mM), 2; in series [2] (setting [3]), 1; in series [2] (setting [4]), 1; in series [2] (setting [5]), 2; in series [2] (setting [6]), 2.
Turning to `CCOC(=O)[C@@]1(OC(=O)C(Cl)Cl)[C@H](C)C[C@H]2[C@@H]3CCC4=CC(=O)C=C[C@]4(C)[C@@]3(F)[C@@H](O)C[C@@]21C` [J, ethyl 17α-dichloroacetoxy-9α-fluoro-11β-hydroxy-16α-methylandrosta-1,4-dien-3-one-17β-carboxylate], in “in vitro”, the share remaining at 2 h is greater than 90%. In series [1], the RBA is on record as 687 ± 49. The Vasoconstriction activity is given as 0 in series [2] (3 Hours, 0.01 mM); 1 in series [2] (3 Hours, 0.05 mM); 2 in series [2] (3 Hours, 0.1 mM); 2 in series [2] (3 Hours, 0.5 mM); 3 in series [2] (3 Hours, 1 mM); 3 in series [2] (3 Hours, 5 mM). Further, the Vasoconstriction activity in series [2] (3 Hours, 10 mM) was 4; in series [2] (20 Hours, 0.01 mM), 0; in series [2] (20 Hours, 0.05 mM), 0; in series [2] (20 Hours, 0.1 mM), 0; in series [2] (20 Hours, 0.5 mM), 1; in series [2] (20 Hours, 1 mM), 1. Besides, the Vasoconstriction activity in series [2] (20 Hours, 5 mM) came out at 1; in series [2] (20 Hours, 10 mM), 2; in series [2] (setting [3]) it was 1; in series [2] (setting [4]), 1; in series [2] (setting [5]), 2; in series [2] (setting [6]), 2.
